The supplement of paper PMC5579334
± gives the standard deviation of the averaged measurements.

How the values were obtained:
HS-Sch-2 [1] = experiment: drug sensitivity score (DSS, CellTiter-Glo viability, 72 h) (DSS (dimensionless)); higher = more sensitive; extreme values may be limits of the assay
In short: (§1)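 MPNST cell lines and primary human Schwann cells were seeded at 750–1000 cells per well into 384-well plates preprinted with each compound at five concentrations in 10-fold steps, then incubated 72 h at 37 °C, 5% CO2. CellTiter-Glo ATP luminescence gave viability, scaled between vehicle and positive-control wells, with duplicates averaged where present. Curves were fitted with a four-parameter logistic model. Percent inhibition refers to the top concentration, while drug sensitivity score and relative IC50, censored at the top concentration, come from these fits.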

[2] = test system: HSC1 (primary human Schwann cells); experiment: as above
In short: as §1

STS26T [3] = experiment: as above
In short: as §1

S1507-2 [4] = experiment: as above
In short: as §1

ST8814 [5] = experiment: as above
In short: as §1

S462 [6] = experiment: as above
In short: as §1

[7] = test system: HSC2 (primary human Schwann cells); experiment: as above
In short: as §1

HS-PSS [8] = experiment: as above
In short: as §1

YST-1 [9] = experiment: as above
In short: as §1

HS-Sch-2 [10] = experiment: % inhibition of CellTiter-Glo viability at highest tested concentration (72 h), relative to DMSO and benzethonium chloride controls; higher = more inhibition
In short: as §1

[11] = test system: HSC1 (primary human Schwann cells); experiment: as above
In short: as §1

STS26T [12] = experiment: as above
In short: as §1

S1507-2 [13] = experiment: as above
In short: as §1

ST8814 [14] = experiment: as above
In short: as §1

S462 [15] = experiment: as above
In short: as §1

[16] = test system: HSC2 (primary human Schwann cells); experiment: as above
In short: as §1

HS-PSS [17] = experiment: as above
In short: as §1

YST-1 [18] = experiment: as above
In short: as §1

[19] = test system: HSC1 (primary human Schwann cells); experiment: drug sensitivity score (DSS, CellTox-Green cytotoxicity, 72 h) (DSS (dimensionless)); higher = more cytotoxic; extreme values may be limits of the assay
In short: (§2)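 For 72 h at 37 °C, MPNST cell lines and primary human Schwann cells were exposed in 384-well plates to five 10-fold compound dilutions. CellTox-Green, added before seeding at a final 1:1000 dilution, gave fluorescence from DNA released by disrupted cells. Signals were scaled to vehicle and positive-control wells, cultures failing plate quality control were left out, and four-parameter logistic fits were applied. Relative IC50 and drug sensitivity score were derived from the fits, with IC50 censored at the top concentration.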

STS26T [20] = experiment: as above
In short: as §2

S1507-2 [21] = experiment: as above
In short: as §2

ST8814 [22] = experiment: as above
In short: as §2

[23] = test system: HSC2 (primary human Schwann cells); experiment: as above
In short: as §2

HS-PSS [24] = experiment: as above
In short: as §2

Structure (SMILES)	drug sensitivity score (HS-Sch-2 [1])	drug sensitivity score [2]	drug sensitivity score (STS26T [3])	drug sensitivity score (S1507-2 [4])	drug sensitivity score (ST8814 [5])	drug sensitivity score (S462 [6])	drug sensitivity score [7]	drug sensitivity score (HS-PSS [8])	drug sensitivity score (YST-1 [9])	% inhibition (HS-Sch-2 [10]) [%]	% inhibition [11] [%]	% inhibition (STS26T [12]) [%]	% inhibition (S1507-2 [13]) [%]	% inhibition (ST8814 [14]) [%]	% inhibition (S462 [15]) [%]	% inhibition [16] [%]	% inhibition (HS-PSS [17]) [%]	% inhibition (YST-1 [18]) [%]	drug sensitivity score [19]	drug sensitivity score (STS26T [20])	drug sensitivity score (S1507-2 [21])	drug sensitivity score (ST8814 [22])	drug sensitivity score [23]	drug sensitivity score (HS-PSS [24])
Nc1ccn([C@@H]2O[C@H](CO)[C@@H](O)[C@@H]2O)c(=O)n1 [Cytarabine] (max concentration tested 10000 nM)	9.14	10.8	13.8	6.29 ± 0.62	12.1	20 ± 0.39	14	10.2	13.2	69.3	65.1	74.7	66.4 ± 5.8	90.2	96.4 ± 1.9	80.3	65.1	69.2	5.58	5.45	0.68 ± 0.19	7.9	4.6	5.69
Nc1ccccc1NC(=O)c1ccc(CNC(=O)OCc2cccnc2)cc1 [Entinostat] (max concentration tested 10000 nM)	4.13	5.09	4.35	4.79 ± 0.3	4.2	9.84 ± 0.75	4.87	2.31	10.3	79.7	71.2	69.3	74.9 ± 7.7	87.7	105.3 ± 0.38	73	52	97.7	0	0.625	2.98 ± 1.3	2.69	0	0.63
O=S(=O)(c1cccc2cnccc12)N1CCCNCC1 [Fasudil] (max concentration tested 50000 nM)	3.75	1.41	2.86	1.02 ± 0.16	0.609	3.84 ± 0.63	1.36	1.83	2.59	71.5	27.6	58.9	30.5 ± 1.5	22.3	70.6 ± 9.4	31.8	45.6	51	0.888	0.899	0	0	0	0.2
CN1CCc2c(c3ccccc3n2Cc2ccc(C(=O)NO)cc2)C1 [Tubastatin A] (max concentration tested 10000 nM)	3.88	1.74	3.1	3.45 ± 0.18	1.84	4.36 ± 0.37	1.75	3.48	4.65	74.3	36.4	52.5	52.1 ± 7.6	40.8	80.8 ± 8.9	23.3	60.9	52.4	0	2.56	0.928 ± 1.3	0	0	0
CC[C@]1(O)C[C@H]2CN(CCc3c([nH]c4ccccc34)[C@@](C(=O)OC)(c3cc4c(cc3OC)N(C=O)[C@H]3[C@@](O)(C(=O)OC)[C@H](OC(C)=O)[C@]5(CC)C=CCN6CC[C@]43[C@@H]65)C2)C1 [Vincristine] (max concentration tested 1000 nM)	30.5	17.9	32.4	21.1 ± 0.68	23.6	28.88 ± 0.23	20.9	17	26.7	94	75.5	94.5	79.8 ± 1.9	90.3	95.45 ± 0.25	90.7	67.8	81.9	8.67	36	13 ± 3	24.3	12.1	0.55
Cc1ccc(NC(=O)c2ccc(CN3CCN(C)CC3)cc2)cc1Nc1nccc(-c2cccnc2)n1 [Imatinib] (max concentration tested 10000 nM)	4.96	0	0.675	3.9 ± 0.28	1.36	0.251 ± 0.2	0	4.08	4.29	89.5	9.96	23.5	49.5 ± 1.2	33.4	16.7 ± 2.7	8.82	58.8	53.8	0	0	0.237 ± 0.34	1.72	0	0.1
C[C@@H]1C[C@H]2[C@@H]3CCC4=CC(=O)C=C[C@]4(C)[C@@]3(F)[C@@H](O)C[C@]2(C)[C@@]1(O)C(=O)CO [Dexamethasone] (max concentration tested 10000 nM)	0	0	0	1.35 ± 1.9	4.78	0.0796 ± 0.11	0	0	2.91	11.7	-11.8	3.98	16.5 ± 13	22.9	9.85 ± 6.5	-7.28	-11.7	6.77	0	0	0	0	0	0
O=P1(N(CCCl)CCCl)NCCCO1 (configuration not stated) [Cyclophosphamide] (max concentration tested 40000 nM)	0	0	0	0	0	0	0	0	0	-7.77	8.38	-1.7	-7.33 ± 17	-3.77	-8.093 ± 0.056	-1.29	-15	3.85	0	0	2.5 ± 3.5	0	0	0
